Experimental data: patent publication US20020137929A1, “1 - (3-heterocyclylphenyl) isothiourea, -isourea, -guanidine and -amidine herbicidal agents” (Intellectual Property Department, BASF Aktiengesellschaft, priority 1998, published 2002)

Experiments:
ABUTH (Velvetleaf) = assay: Postemergence herbicidal evaluation; format: in vivo, Abutilon theophrasti; conditions: postemergence
Method in brief: (§1)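 Two-week seedlings sprayed postemergence at 40 psi; formulation: 1:1 acetone/water, 0.5% TWEEN 20; application ≈0.0156–0.500 kg/ha. Greenhouse grow-out, then 0–9 visual scoring at 4–5 weeks.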

GALAP (Galium) = assay: Postemergence herbicidal evaluation; format: in vivo, Galium aparine; conditions: postemergence
Method in brief: as §1

ECHCG (Barnyardgrass) = assay: Postemergence herbicidal evaluation; format: in vivo, Echinochloa crus-galli; conditions: postemergence
Method in brief: as §1

SETVI (Foxtail, Green) = assay: Postemergence herbicidal evaluation; format: in vivo, Setaria viridis; conditions: postemergence
Method in brief: as §1

ORYSAT (Rice, Tebonnet) = assay: Postemergence herbicidal evaluation; format: in vivo, Oryza sativa, (L.) Tebonnet; conditions: postemergence
Method in brief: as §1

[1] = test system: IPOHE (Morningglory, Ivyleaf); assay: Preemergence herbicidal evaluation; format: in vivo, Ipomoea hederacea; conditions: rated 4-5 weeks after treatment
Method in brief: (§2)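 Visual 0-9 rating vs control (stand, vigor, malformation, size, chlorosis, overall appearance), scored 4-5 wk after spraying. Seeded soil cups were treated preemergence with compound in aqueous acetone, ~0.0156-0.500 kg/ha equivalent.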

[2] = test system: TRZAWR (Wheat, Winter, cv Riband); assay: Preemergence herbicidal evaluation; format: in vivo, Triticum aestivum; conditions: rated 4-5 weeks after treatment
Method in brief: as §2

ZEAMX (Corn, Field) = assay: Preemergence herbicidal evaluation; format: in vivo, Zea mays; conditions: rated 4-5 weeks after treatment
Method in brief: as §2

[3] = test system: ECHORC (Watergrass (Calif.)); assay: Preemergence weed control under flooded paddy conditions; format: in vivo, Echinochloa oryzoides; conditions: rated 3-4 weeks after treatment
Method in brief: (§3)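 Ratings on a 0-9 visual scale cover stand, vigor, malformation, size, chlorosis and overall appearance relative to a control, taken three to four weeks post-treatment. Application was into flood water over freshly sown silt loam at roughly 0.0313 to 0.500 kg/ha.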

CYPIR (Rice Flatsedge) = assay: as above; format: in vivo, Cyperus iria; conditions: rated 3-4 weeks after treatment
Method in brief: as §3

MOOVA (Monochoria) = assay: as above; format: in vivo, Monochoria vaginalis; conditions: rated 3-4 weeks after treatment
Method in brief: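 Silt loam, seeds in top 0.5 cm; flood held 1.5-3 cm; test cpd as acetone/water 50/50 into flood water, ~0.0313-0.500 kg/ha a.i.; greenhouse 3-4 wk; visual 0-9 score vs control.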

[4] = rate 0.0313 kg/ha, rating scale 0-9
[5] = rate 0.0625 kg/ha, rating scale 0-9
[6] = rate 0.1250 kg/ha, rating scale 0-9
[7] = rate 0.2500 kg/ha, rating scale 0-9
[8] = rate 0.0156 kg/ha, rating scale 0-9

CCOC(=O)CN1C(=O)C(COC)SC1=Nc1cc(-n2c(=O)cc(C(F)(F)F)n(C)c2=O)c(F)cc1Cl (centres unmarked) [Compound 156, Ethyl 2-{{2-chloro-5-[3,6-dihydro-3-methyl-2,6-dioxo-4-(trifluoromethyl)-1(2H)-pyrimidinyl]-4-fluorophenyl}imino}-5-(methoxymethyl)-4-oxo-3-thiazolidine-acetate]
0.0: Herbicidal rating GALAP (GALAP (Galium); rate 0.0156 kg/ha) | Herbicidal rating GALAP (GALAP (Galium); rate 0.0313 kg/ha) | Herbicidal rating ECHCG (ECHCG (Barnyardgrass); rate 0.0156 kg/ha) | Herbicidal rating ECHCG (ECHCG (Barnyardgrass); rate 0.0313 kg/ha) | Herbicidal rating ECHCG (ECHCG (Barnyardgrass); rate 0.0625 kg/ha) | Herbicidal rating SETVI (SETVI (Foxtail, Green); rate 0.0156 kg/ha) | Herbicidal rating SETVI (SETVI (Foxtail, Green); rate 0.0313 kg/ha) | Preemergence herbicidal rating IPOHE [1, 4] | Preemergence herbicidal rating TRZAWR [2, 4] | Preemergence herbicidal rating TRZAWR [2, 5] | Preemergence herbicidal rating TRZAWR [2, 6] | Preemergence herbicidal rating ZEAMX (ZEAMX (Corn, Field); [4]) | herbicidal effect rating, ECHORC ([3]; 0.2500 kg/ha) | herbicidal effect rating, CYPIR (CYPIR (Rice Flatsedge); 0.2500 kg/ha) | herbicidal effect rating, MOOVA (MOOVA (Monochoria); 0.2500 kg/ha)
1.0: Preemergence herbicidal rating ZEAMX (ZEAMX (Corn, Field); [5])
0.5: Herbicidal rating ORYSAT (ORYSAT (Rice, Tebonnet); rate 0.0156 kg/ha) | Herbicidal rating ORYSAT (ORYSAT (Rice, Tebonnet); rate 0.0313 kg/ha)
5.0: Herbicidal rating SETVI (SETVI (Foxtail, Green); rate 0.0625 kg/ha) | Preemergence herbicidal rating ZEAMX (ZEAMX (Corn, Field); [7])
9.0: Herbicidal rating ABUTH (ABUTH (Velvetleaf); rate 0.0156 kg/ha) | Herbicidal rating ABUTH (ABUTH (Velvetleaf); rate 0.0313 kg/ha) | Herbicidal rating ABUTH (ABUTH (Velvetleaf); rate 0.0625 kg/ha) | Preemergence herbicidal rating IPOHE [1, 6] | Preemergence herbicidal rating IPOHE [1, 7]
3.0: Herbicidal rating GALAP (GALAP (Galium); rate 0.0625 kg/ha) | Preemergence herbicidal rating IPOHE [1, 5] | Preemergence herbicidal rating TRZAWR [2, 7]
2.0: Herbicidal rating ORYSAT (ORYSAT (Rice, Tebonnet); rate 0.0625 kg/ha) | Preemergence herbicidal rating ZEAMX (ZEAMX (Corn, Field); [6])

CCOC(=O)CN1C(=O)C(CC(=O)O)SC1=Nc1cc(N2C(=O)CC(C(F)(F)F)CC2=O)c(F)cc1Cl (centres unmarked) [Compound 170, 2-{{2-Chloro-5-[2,6-dioxo-4-(trifluoromethyl)-piperidino]-4-fluorophenyl}imino}-4-oxo-3,5-thiazolidinediacetic acid, 3-ethyl ester]
2.0: Herbicidal rating ORYSAT (ORYSAT (Rice, Tebonnet); rate 0.0156 kg/ha) | Herbicidal rating ORYSAT (ORYSAT (Rice, Tebonnet); rate 0.0313 kg/ha)
9.0: Herbicidal rating ABUTH (ABUTH (Velvetleaf); rate 0.0156 kg/ha) | Herbicidal rating ABUTH (ABUTH (Velvetleaf); rate 0.0313 kg/ha) | Herbicidal rating ABUTH (ABUTH (Velvetleaf); rate 0.0625 kg/ha) | Herbicidal rating SETVI (SETVI (Foxtail, Green); rate 0.0313 kg/ha) | Herbicidal rating SETVI (SETVI (Foxtail, Green); rate 0.0625 kg/ha) | Preemergence herbicidal rating IPOHE ([1]; 0.2500 kg/ha) | Preemergence herbicidal rating TRZAWR ([2]; 0.2500 kg/ha) | Preemergence herbicidal rating ZEAMX (ZEAMX (Corn, Field); 0.1250 kg/ha) | Preemergence herbicidal rating ZEAMX (ZEAMX (Corn, Field); 0.2500 kg/ha) | herbicidal effect rating, ECHORC ([3]; 0.0313 kg/ha) | herbicidal effect rating, ECHORC ([3]; 0.0625 kg/ha) | herbicidal effect rating, ECHORC ([3]; 0.1250 kg/ha) | herbicidal effect rating, ECHORC ([3]; 0.2500 kg/ha) | herbicidal effect rating, CYPIR (CYPIR (Rice Flatsedge); 0.0313 kg/ha) | herbicidal effect rating, CYPIR (CYPIR (Rice Flatsedge); 0.0625 kg/ha) | herbicidal effect rating, CYPIR (CYPIR (Rice Flatsedge); 0.1250 kg/ha) | herbicidal effect rating, CYPIR (CYPIR (Rice Flatsedge); 0.2500 kg/ha) | herbicidal effect rating, MOOVA (MOOVA (Monochoria); 0.0313 kg/ha) | herbicidal effect rating, MOOVA (MOOVA (Monochoria); 0.0625 kg/ha) | herbicidal effect rating, MOOVA (MOOVA (Monochoria); 0.1250 kg/ha) | herbicidal effect rating, MOOVA (MOOVA (Monochoria); 0.2500 kg/ha)
1.0: Herbicidal rating ECHCG (ECHCG (Barnyardgrass); rate 0.0156 kg/ha) | Herbicidal rating ECHCG (ECHCG (Barnyardgrass); rate 0.0313 kg/ha) | Herbicidal rating ECHCG (ECHCG (Barnyardgrass); rate 0.0625 kg/ha)
7.0: Preemergence herbicidal rating IPOHE ([1]; 0.0313 kg/ha) | Preemergence herbicidal rating IPOHE ([1]; 0.1250 kg/ha) | Preemergence herbicidal rating TRZAWR ([2]; 0.0625 kg/ha) | Preemergence herbicidal rating ZEAMX (ZEAMX (Corn, Field); 0.0313 kg/ha)
8.0: Preemergence herbicidal rating TRZAWR ([2]; 0.1250 kg/ha) | Preemergence herbicidal rating ZEAMX (ZEAMX (Corn, Field); 0.0625 kg/ha)
6.0: Herbicidal rating SETVI (SETVI (Foxtail, Green); rate 0.0156 kg/ha) | Preemergence herbicidal rating TRZAWR ([2]; 0.0313 kg/ha)
0.0: Herbicidal rating GALAP (GALAP (Galium); rate 0.0156 kg/ha) | Preemergence herbicidal rating TRZAWR ([2]; 0.0156 kg/ha)
2.5: Herbicidal rating ORYSAT (ORYSAT (Rice, Tebonnet); rate 0.0625 kg/ha)
4.0: Herbicidal rating GALAP (GALAP (Galium); rate 0.0625 kg/ha)
3.0: Herbicidal rating GALAP (GALAP (Galium); rate 0.0313 kg/ha) | Preemergence herbicidal rating IPOHE ([1]; 0.0156 kg/ha)
5.0: Preemergence herbicidal rating ZEAMX (ZEAMX (Corn, Field); 0.0156 kg/ha)

CN(C)c1ccc(CN2C(=O)CSC2=Nc2cc(-n3c(=O)cc(C(F)(F)F)n(C)c3=O)c(F)cc2Cl)cc1 [Compound 138, 3-{4-Chloro-5-{{3-[p-(dimethylamino)benzyl]-4-oxo-2-thiazolidinylidene}amino}-2-fluorophenyl}-1-methyl-6-(trifluoromethyl)-2,4(1H,3H)-pyrimidinedione]
1.0: Herbicidal rating ECHCG (ECHCG (Barnyardgrass); rate 0.0156 kg/ha) | Herbicidal rating ECHCG (ECHCG (Barnyardgrass); rate 0.0313 kg/ha)
9.0: Herbicidal rating ABUTH (ABUTH (Velvetleaf); rate 0.0156 kg/ha) | Herbicidal rating ABUTH (ABUTH (Velvetleaf); rate 0.0313 kg/ha) | Herbicidal rating ABUTH (ABUTH (Velvetleaf); rate 0.0625 kg/ha) | Herbicidal rating SETVI (SETVI (Foxtail, Green); rate 0.0625 kg/ha) | herbicidal effect rating, ECHORC ([3]; 0.0625 kg/ha) | herbicidal effect rating, ECHORC ([3]; 0.1250 kg/ha) | herbicidal effect rating, ECHORC ([3]; 0.2500 kg/ha)
3.0: Herbicidal rating SETVI (SETVI (Foxtail, Green); rate 0.0156 kg/ha) | Herbicidal rating ORYSAT (ORYSAT (Rice, Tebonnet); rate 0.0625 kg/ha) | herbicidal effect rating, CYPIR (CYPIR (Rice Flatsedge); 0.1250 kg/ha)
2.0: Herbicidal rating GALAP (GALAP (Galium); rate 0.0313 kg/ha) | Herbicidal rating GALAP (GALAP (Galium); rate 0.0625 kg/ha) | Herbicidal rating ECHCG (ECHCG (Barnyardgrass); rate 0.0625 kg/ha) | herbicidal effect rating, CYPIR (CYPIR (Rice Flatsedge); 0.0313 kg/ha) | herbicidal effect rating, CYPIR (CYPIR (Rice Flatsedge); 0.0625 kg/ha)
7.0: herbicidal effect rating, ECHORC ([3]; 0.0313 kg/ha) | herbicidal effect rating, MOOVA (MOOVA (Monochoria); 0.2500 kg/ha)
1.5: Herbicidal rating ORYSAT (ORYSAT (Rice, Tebonnet); rate 0.0156 kg/ha)
6.0: herbicidal effect rating, MOOVA (MOOVA (Monochoria); 0.0625 kg/ha) | herbicidal effect rating, MOOVA (MOOVA (Monochoria); 0.1250 kg/ha)
4.0: Herbicidal rating SETVI (SETVI (Foxtail, Green); rate 0.0313 kg/ha)
5.0: herbicidal effect rating, CYPIR (CYPIR (Rice Flatsedge); 0.2500 kg/ha) | herbicidal effect rating, MOOVA (MOOVA (Monochoria); 0.0313 kg/ha)
0.0: Herbicidal rating GALAP (GALAP (Galium); rate 0.0156 kg/ha) | Preemergence herbicidal rating IPOHE [1, 8] | Preemergence herbicidal rating IPOHE [1, 4] | Preemergence herbicidal rating IPOHE [1, 5] | Preemergence herbicidal rating IPOHE [1, 6] | Preemergence herbicidal rating IPOHE [1, 7] | Preemergence herbicidal rating TRZAWR [2, 8] | Preemergence herbicidal rating TRZAWR [2, 4] | Preemergence herbicidal rating TRZAWR [2, 5] | Preemergence herbicidal rating TRZAWR [2, 6] | Preemergence herbicidal rating TRZAWR [2, 7] | Preemergence herbicidal rating ZEAMX (ZEAMX (Corn, Field); [8]) | Preemergence herbicidal rating ZEAMX (ZEAMX (Corn, Field); [4]) | Preemergence herbicidal rating ZEAMX (ZEAMX (Corn, Field); [5]) | Preemergence herbicidal rating ZEAMX (ZEAMX (Corn, Field); [6]) | Preemergence herbicidal rating ZEAMX (ZEAMX (Corn, Field); [7])
2.5: Herbicidal rating ORYSAT (ORYSAT (Rice, Tebonnet); rate 0.0313 kg/ha)
